The values that follow come from ChEMBL document CHEMBL4706476, “Novel Tetrahydropyrido[4,3-d]pyrimidines as Potent Inhibitors of Chaperone Heat Shock Protein 90” (J Med Chem, 2016).

Converted amounts (≈) assume the structure as drawn.

Series [1] is described as follows: Distribution coefficient, logD of compound at pH 7.4. The format is physicochemical. The settings on record: octanol/water.
Series [2] deals with Heat shock protein HSP 90-alpha (Homo sapiens, UniProt P07900). As to the kind of experiment: Displacement of FITC-geldanamycin from N-terminal HSP90alpha (unknown origin) after 30 mins by fluorescence polarization competitive binding assay. (In general: Polarisation of emitted light reports the rotation of a fluorescent probe.)
Series [3] in a line: Permeability of the compound at pH 7.4 by PAMPA. In kind it is ADME. The following applies: read-out: permeability. On the technique in general: In PAMPA a lipid-coated filter parts donor from acceptor wells.
A short description of series [4]: Intrinsic aqueous solubility of the compound. The format is physicochemical.
Another series concerns the target Endoplasmin (Homo sapiens, UniProt P14625). As to the kind of experiment: Displacement of FITC-geldanamycin from N-terminal GRP94 (unknown origin) after 30 mins by fluorescence polarization competitive binding assay.
Series [5] is described as follows: Selectivity ratio of IC50 for inhibition of FITC-geldanamycin binding to N-terminal GRP94 (unknown origin) to IC50 for inhibition of FITC-geldanamycin binding to N-terminal HSP90alpha (unknown origin).
The test system of a further series is MDA-MB-231. As to the kind of experiment: Antiproliferative activity against human MDA-MB-231 assessed as reduction in cell viability incubated for 72 hrs by MTT assay. The following applies: MDA-MB-231, 72 h. In kind it is functional, cell-based. (In general: Tetrazolium assays rely on reduction of a dye to a coloured formazan, in cell work by metabolically active cells.)

The subject of a further series is MDA-MB-468. As to the kind of experiment: Antiproliferative activity against human MDA-MB-468 assessed as reduction in cell viability incubated for 72 hrs by MTT assay. The following applies: MDA-MB-468, 72 h. In kind it is functional, cell-based.
In the next series the test system is SK-BR-3. Description: Antiproliferative activity against human SK-BR-3 assessed as reduction in cell viability incubated for 72 hrs by MTT assay. In kind it is functional, cell-based. The settings on record: SK-BR-3, 72 h.
The next series deals with T47D. Description: Antiproliferative activity against human T47D assessed as reduction in cell viability incubated for 72 hrs by MTT assay. In kind it is functional, cell-based.
For a further series, the system named is BT-474. As to the kind of experiment: Antiproliferative activity against human BT-474 assessed as reduction in cell viability incubated for 72 hrs by MTT assay. The format is functional, cell-based. The settings on record: BT-474, 72 h.
The next series has as its system U2OS. Description: Antiproliferative activity against human U2OS assessed as reduction in cell viability incubated for 72 hrs by MTT assay. The format is functional, cell-based.
The next series concerns MKN-28. Description: Antiproliferative activity against human MKN-28 assessed as reduction in cell viability incubated for 72 hrs by MTT assay. In kind it is functional, cell-based. The following applies: MKN-28, 72 h.
A further series deals with A549. As to the kind of experiment: Antiproliferative activity against human A549 assessed as reduction in cell viability incubated for 72 hrs by MTT assay. The format is functional, cell-based. The settings on record: A549, 72 h.
The test system of a further series is HepG2. As to the kind of experiment: Antiproliferative activity against human HepG2 assessed as reduction in cell viability incubated for 72 hrs by MTT assay. In kind it is functional, cell-based. The following applies: HepG2, 72 h.
A further series concerns K562. As to the kind of experiment: Antiproliferative activity against human K562 assessed as reduction in cell viability incubated for 72 hrs by MTT assay. The following applies: K562, 72 h. In kind it is functional, cell-based.
For a further series, the system named is MV4-11. As to the kind of experiment: Antiproliferative activity against human MV4-11 assessed as reduction in cell viability incubated for 72 hrs by MTT assay. The format is functional, cell-based. The settings on record: MV4-11, 72 h.
The test system of the next series is L02. As to the kind of experiment: Cytotoxicity against human L02 cells assessed as reduction in cell viability incubated for 72 hrs by MTT assay. The format is cell-based. The following applies: L02, 72 h.
For series [6], the target named is T1, Heat shock protein HSP90 (Homo sapiens) (UniProt P07900+P08238). As to the kind of experiment: Inhibition of HSP90 in human HCT-116 cells assessed as reduction in AKT protein expression after 24 hrs by Western blot analysis. The format is cell-based. The settings on record: dose 0.01-3 µM.
Series [7] has as its target T1, Heat shock protein HSP90 (Homo sapiens). Description: Inhibition of HSP90 in human HCT-116 cells assessed as reduction in Erk protein expression after 24 hrs by Western blot analysis. The settings on record: dose 0.01-3 µM. In kind it is cell-based.
Series [8] has the same target. Description: Inhibition of HSP90 in human HCT-116 cells assessed as reduction in phosphorylated Erk after 24 hrs by Western blot analysis. In kind it is cell-based. The settings on record: dose 0.01-3 µM.
For series [9] the target is unchanged. Description: Inhibition of HSP90 in human HCT-116 cells assessed as induction of HSP70 expression after 24 hrs by Western blot analysis. In kind it is cell-based. The settings on record: dose 0.01-3 µM.
Series [10] in a line: Tmax in rat at 50 mg/kg, po measured upto 24 hrs by LC-MS/MS analysis. In kind it is ADME, organism-based. The following applies: in vivo.
Series [11] is described as follows: Cmax in rat at 50 mg/kg, po measured upto 24 hrs by LC-MS/MS analysis. In kind it is ADME, organism-based. The arrangement: route oral, dose 50 mg/kg, time <=24. The following applies: in vivo.
Series [12] can be described thus: Half life in human liver microsomes at 1 uM preincubated for 5 mins followed by NADPH addition and measured up to 120 mins by LC-MS/MS analysis. The format is ADME, Microsome. The settings on record: 2 h, time <=125 min.
The nature of series [13]: Intrinsic clearance in human liver microsomes at 1 uM preincubated for 5 mins followed by NADPH addition and measured up to 120 mins by LC-MS/MS analysis. The format is ADME, Microsome. The settings on record: 2 h, time <=125 min.
Series [14] in a line: Metabolic stability in human liver microsomes assessed as parent compound remaining at 1 uM preincubated for 5 mins followed by NADPH addition and measured up to 120 mins by LC-MS/MS analysis. In kind it is ADME, Microsome. The following applies: 2 h, time <=125 min.
Series [15] is described as follows: Half-life in rat at 50 mg/kg, po measured upto 24 hrs by LC-MS/MS analysis. The following applies: in vivo. The format is ADME, organism-based.
Series [16] is described as follows: Half-life in rat at 10 mg/kg, iv measured upto 24 hrs by LC-MS/MS analysis. The settings on record: in vivo. In kind it is ADME, organism-based.
The nature of series [17]: Apparent clearance during terminal phase in rat at 50 mg/kg, po measured upto 24 hrs by LC-MS/MS analysis. In kind it is ADME, organism-based. The settings on record: in vivo, read-out: CLz/F (converted).
Series [18] is described as follows: Apparent clearance during terminal phase in rat at 10 mg/kg, iv measured upto 24 hrs by LC-MS/MS analysis. The following applies: in vivo. In kind it is ADME, organism-based.
The nature of series [19]: AUC (0 to t) in rat at 50 mg/kg, po measured upto 24 hrs by LC-MS/MS analysis. In kind it is ADME, organism-based. The arrangement: route oral, dose 50 mg/kg, time <=24. The settings on record: in vivo.
Series [20] is described as follows: AUC (0 to t) in rat at 10 mg/kg, iv measured upto 24 hrs by LC-MS/MS analysis. The format is ADME, organism-based. The arrangement: route intravenous, dose 10 mg/kg, time <=24. The following applies: in vivo.
Series [21] is described as follows: Oral bioavailability in rat at 50 mg/kg measured upto 24 hrs by LC-MS/MS analysis. The format is ADME, organism-based. The settings on record: in vivo.
A short description of series [22]: Apparent volume of distribution in rat at 50 mg/kg, po measured upto 24 hrs by LC-MS/MS analysis. The format is ADME, organism-based. The following applies: in vivo.
Series [23] is described as follows: Apparent volume of distribution in rat at 10 mg/kg, iv measured upto 24 hrs by LC-MS/MS analysis. The format is ADME, organism-based. The settings on record: in vivo, read-out: Vz.
Another series deals with HCT-116. Description: cells. The following applies: Homo sapiens, HCT-116, 72 h.
Another series has as its system MCF7. As to the kind of experiment: cells. The settings on record: Homo sapiens, MCF7, 72 h.
The target of another series is CYP2D6 (Homo sapiens, UniProt P10635). As to the kind of experiment: Inhibition of CYP2D6 in human liver microsomes at 10 uM using dextromethorphan as substrate preincubated for 5 mins followed by NADPH addition and measured after 20 mins by LC-MS/MS analysis relative to control. In kind it is ADME. The settings on record: probe dextromethorphan, time 25 min.
The target of a further series is CYP3A4 (Homo sapiens, UniProt P08684). Description: Inhibition of CYP3A4 in human liver microsomes at 10 uM using midazolam as substrate preincubated for 5 mins followed by NADPH addition and measured after 20 mins by LC-MS/MS analysis relative to control. In kind it is ADME. The following applies: probe midazolam, time 25 min.
Another series deals with CYP1A2 (Homo sapiens, UniProt P05177). As to the kind of experiment: Inhibition of CYP1A2 in human liver microsomes at 10 uM using phenacetin as substrate preincubated for 5 mins followed by NADPH addition and measured after 20 mins by LC-MS/MS analysis relative to control. The format is ADME. The settings on record: probe phenacetin, time 25 min.
CYP1A2, sequence (P05177 whole entry): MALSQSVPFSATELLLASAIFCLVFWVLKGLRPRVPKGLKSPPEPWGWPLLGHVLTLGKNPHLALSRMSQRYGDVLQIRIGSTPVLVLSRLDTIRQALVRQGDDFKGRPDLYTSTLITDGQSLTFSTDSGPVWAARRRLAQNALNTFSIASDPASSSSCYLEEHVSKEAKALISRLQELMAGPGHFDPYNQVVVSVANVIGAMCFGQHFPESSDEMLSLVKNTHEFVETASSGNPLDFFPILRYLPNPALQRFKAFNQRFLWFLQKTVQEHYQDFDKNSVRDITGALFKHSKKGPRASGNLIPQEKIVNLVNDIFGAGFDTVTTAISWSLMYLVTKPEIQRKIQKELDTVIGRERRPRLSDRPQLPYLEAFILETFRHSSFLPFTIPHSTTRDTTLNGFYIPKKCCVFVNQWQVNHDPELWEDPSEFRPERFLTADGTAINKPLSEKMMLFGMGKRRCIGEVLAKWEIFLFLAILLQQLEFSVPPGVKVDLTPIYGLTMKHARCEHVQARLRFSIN

Endoplasmin, sequence (P14625 whole entry): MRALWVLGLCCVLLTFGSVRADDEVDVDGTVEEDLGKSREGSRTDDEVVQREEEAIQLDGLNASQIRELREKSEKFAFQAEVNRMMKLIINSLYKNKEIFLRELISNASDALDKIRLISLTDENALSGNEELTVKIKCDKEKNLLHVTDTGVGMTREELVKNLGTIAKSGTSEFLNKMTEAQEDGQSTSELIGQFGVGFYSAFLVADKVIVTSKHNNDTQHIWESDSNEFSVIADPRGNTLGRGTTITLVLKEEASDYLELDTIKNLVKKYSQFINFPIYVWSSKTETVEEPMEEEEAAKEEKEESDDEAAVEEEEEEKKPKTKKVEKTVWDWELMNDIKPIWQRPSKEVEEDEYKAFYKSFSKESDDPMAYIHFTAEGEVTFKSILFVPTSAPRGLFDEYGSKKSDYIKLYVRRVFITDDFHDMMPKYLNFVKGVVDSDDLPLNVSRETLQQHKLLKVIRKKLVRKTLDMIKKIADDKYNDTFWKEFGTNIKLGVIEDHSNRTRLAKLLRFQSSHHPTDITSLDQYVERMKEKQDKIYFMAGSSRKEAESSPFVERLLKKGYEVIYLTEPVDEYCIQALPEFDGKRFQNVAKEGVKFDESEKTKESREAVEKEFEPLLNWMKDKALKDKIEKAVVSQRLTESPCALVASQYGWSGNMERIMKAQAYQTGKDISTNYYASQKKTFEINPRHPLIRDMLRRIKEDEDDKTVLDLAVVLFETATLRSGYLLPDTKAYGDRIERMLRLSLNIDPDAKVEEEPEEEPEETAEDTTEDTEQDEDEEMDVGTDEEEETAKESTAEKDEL
CYP3A4, sequence (P08684 whole entry): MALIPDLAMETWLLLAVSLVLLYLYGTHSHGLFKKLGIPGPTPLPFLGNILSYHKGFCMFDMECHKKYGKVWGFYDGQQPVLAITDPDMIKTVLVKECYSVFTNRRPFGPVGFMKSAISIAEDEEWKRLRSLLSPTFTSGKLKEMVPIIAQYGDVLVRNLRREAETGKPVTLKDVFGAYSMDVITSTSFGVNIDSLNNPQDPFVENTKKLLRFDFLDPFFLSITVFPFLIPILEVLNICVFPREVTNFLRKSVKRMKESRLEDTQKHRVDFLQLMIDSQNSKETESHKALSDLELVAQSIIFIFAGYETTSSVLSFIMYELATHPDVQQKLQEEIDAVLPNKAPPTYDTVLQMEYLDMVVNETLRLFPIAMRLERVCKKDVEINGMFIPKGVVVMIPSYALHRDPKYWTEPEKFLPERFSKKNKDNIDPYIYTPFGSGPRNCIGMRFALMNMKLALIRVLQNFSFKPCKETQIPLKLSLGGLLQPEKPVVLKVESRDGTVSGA
CYP2D6, sequence (P10635 whole entry): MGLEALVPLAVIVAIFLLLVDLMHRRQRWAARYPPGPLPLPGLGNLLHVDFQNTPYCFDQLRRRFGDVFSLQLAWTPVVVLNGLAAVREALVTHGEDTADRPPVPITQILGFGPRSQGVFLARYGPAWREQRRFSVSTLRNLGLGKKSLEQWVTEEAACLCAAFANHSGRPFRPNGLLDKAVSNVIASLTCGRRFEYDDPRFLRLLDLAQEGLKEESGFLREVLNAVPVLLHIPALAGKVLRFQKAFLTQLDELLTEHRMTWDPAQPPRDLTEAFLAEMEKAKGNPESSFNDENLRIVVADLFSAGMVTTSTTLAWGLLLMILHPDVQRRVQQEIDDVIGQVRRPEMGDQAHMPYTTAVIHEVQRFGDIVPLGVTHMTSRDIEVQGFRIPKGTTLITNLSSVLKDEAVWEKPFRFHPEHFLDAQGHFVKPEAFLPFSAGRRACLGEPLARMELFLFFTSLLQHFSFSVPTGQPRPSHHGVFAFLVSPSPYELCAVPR
Description for HCT-116: Antiproliferative activity against human HCT-116 cells assessed as reduction in cell viability incubated for 72 hrs by MTT assay

What is called logD is lipophilicity at a set pH, counting ionised and neutral species. The low end stands for a more hydrophilic compound, the high end for a more lipophilic compound. One may read the IC50 as the concentration that gives 50% inhibition. Broadly, the solubility is how much of the substance goes into solution per volume. Read a high solubility as a readily soluble substance. In general, inhibition refers to the drop in the measured response relative to a control, in per cent. The term Tmax denotes the time at which the peak concentration occurs. For orientation: Cmax means the maximum level reached in the sampled fluid or tissue. Usually half-life stands for the time needed for the level to fall by half in the phase considered. Higher therefore signals slow decline. A word on the AUC(0-t): it is exposure summed from dosing to a finite time, without extrapolation to infinity. Read a low AUC(0-t) as less exposure. As a reminder, the bioavailability is dose-corrected exposure relative to a reference, in per cent. With `COCCOc1ncc2c(n1)CCN(C(=O)c1cc(C(C)C)c(O)cc1O)C2`, in [1], the pH-dependent lipophilicity (logD) came to 2.14. Also, the IC50 in series [2] was determined as 19 nM; on Endoplasmin, 198 nM; with MDA-MB-231, 129 nM; in the series on MDA-MB-468 it was 172 nM; in the series with SK-BR-3, 175 nM; in the series on T47D, 183 nM. Moreover, the IC50 with BT-474 came out at 144 nM; in the series with U2OS it was 107 nM; in the series on MKN-28, 325 nM; in the series on A549, 168 nM; in the series with HepG2 it was 119 nM; in the series with K562 it was 109 nM. The half-inhibitory concentration (IC50) in the series on MV4-11 worked out at 31 nM; in the series with L02, 27600 nM; with HCT-116, 170 nM; in the series with MCF7 it was 120 nM. For the same compound, in series [3], the Papp was found to be 55.5 ×10⁻⁶ cm/s. The amount in solution in series [4] (solubility) came to 140 µg/mL (≈ 361 µM). Moreover, the Ratio IC50 in series [5] worked out at 10.4. The inhibition entry in series [6], in [7], in [8] and in series [9] was “Dose-dependent effect” in each case. The Tmax in series [10] amounted to 0.5 h. Also, in [11], the peak level (Cmax) was 40.7 ng/mL. In addition, the t1/2 in series [12] amounted to 3.23 h. This compound showed a CLint in series [13] of 4.88 mL/min/kg. For the same compound, the Stabilty in series [14] is 81.5%. Further, the half-life in [15] is 7.4 h; in series [16], 4.16 h. Besides, in series [17], the CL/F was 3320 mL/min/kg. Besides, the CLz/F in [18] worked out at 235.3 mL/min/kg. The AUC(0-t) at 24 h in [19] was found to be 265 ng·h/mL; in [20], 757 ng·h/mL. Besides, in series [21], the bioavailability was 7%. In addition, the Vz in series [22] stood at 2072.05 L/kg. Also, the Vd in series [23] worked out at 86.6 L/kg.

`C=C[C@H]1C[N@@]2CC[C@H]1C[C@@H]2[C@@H](O)c1ccnc2ccc(OC)cc12` [QUINIDINE] had an inhibition at 20 min, 10 µM against CYP2D6 of 89%.

For the compound `CC(=O)N1CCN(c2ccc(OCC3COC(Cn4ccnc4)(c4ccc(Cl)cc4Cl)O3)cc2)CC1` (centres undefined) [KETOCONAZOLE], the inhibition at 20 min, 10 µM on CYP3A4 turned out to be 72%.

Take `O=c1cc(-c2ccccc2)oc2c1ccc1ccccc12` [ALPHA-NAPHTHOFLAVONE]: on CYP1A2, the inhibition at 20 min, 10 µM amounted to 76%.

On to `CNc1nc(OCCOC)nc2c1CN(C(=O)c1cc(C(C)C)c(O)cc1O)CC2`, for which the logD in series [1] worked out at 2.21. In addition, the IC50 was 17 nM in series [2], 196 nM on Endoplasmin, 270 nM in the series with HCT-116 and 290 nM with MCF7. Besides, the Papp in [3] is 57.5 ×10⁻⁶ cm/s. The same compound returned a solubility in series [4] of 178 µg/mL (≈ 427 µM). Also, the Ratio IC50 in [5] came out at 11.5.
